Patent US20140187559A1, “INHIBITORS OF THE FIBROBLAST GROWTH FACTOR RECEPTOR” (BLUEPRINT MEDICINES CORPORATION, priority 2012, published 2014)

Tests used:
[1] = molecular target: T1, wild type FGFR-4 (Homo sapiens, UniProt P22455); assay: FGFR-4 wild type assay at Km (Caliper mobility shift); type: biochemical; conditions: for Ratio FGFR1/FGFR4: [IC50 for FGFR1]/[IC50 for FGFR4]; for IC50: 400 uM ATP, 25 C, 90 minutes, read-out: FGFR4 IC50
T1 construct: purchased Carna Biosciences, Inc
Method: (§1) In order to assess the activity of chemical compounds against the relevant kinase of interest, the Caliper LifeSciences electrophoretic mobility shift technology platform is utilized. Fluorescently labeled substrate peptide is incubated in the presence dosed levels of compounds, a set concentration of kinase and of ATP, so that a reflective proportion of the peptide is phosphorylated. At the end of the reaction, the mix of phosphorylated (product) and non-phosphorylated (substrate) peptides are passed through the microfluidic system of the Caliper LabChip® EZ Reader II, under an applied potential difference. The presence of the phosphate group on the product peptide provides a difference in mass and charge between the product peptide and the substrate peptide, resulting in a separation of the substrate and product pools in the sample. As the pools pass the LEDS within the instrument, these pools are detected and resolved as separate peaks. The ratio between these peaks therefore reflects the activity of the chemical matter at that concentration in that well, under those conditions.
(§2) The reaction was stopped by the addition of 70 ul of Stop buffer (100 mM HEPES pH 7.5, 0.015% Brij 35, 35 mM EDTA and 0.2% of Coating Reagent 3 (Caliper Lifesciences)). The plate was then read on a Caliper LabChip® EZ Reader II (protocol settings: —1.9 psi, upstream voltage—700, downstream voltage—3000, post sample sip 35 s).

[2] = molecular target: T2, wild type FGFR-1 (Homo sapiens, UniProt P11362); assay: FGFR-1 wild type assay at Km (Caliper mobility shift); type: biochemical; conditions: 400 uM ATP, 25 C, 90 minutes; read-out: FGFR1 IC50
T2 construct: purchased Carna Biosciences, Inc
T2 sequence (P11362 22-822): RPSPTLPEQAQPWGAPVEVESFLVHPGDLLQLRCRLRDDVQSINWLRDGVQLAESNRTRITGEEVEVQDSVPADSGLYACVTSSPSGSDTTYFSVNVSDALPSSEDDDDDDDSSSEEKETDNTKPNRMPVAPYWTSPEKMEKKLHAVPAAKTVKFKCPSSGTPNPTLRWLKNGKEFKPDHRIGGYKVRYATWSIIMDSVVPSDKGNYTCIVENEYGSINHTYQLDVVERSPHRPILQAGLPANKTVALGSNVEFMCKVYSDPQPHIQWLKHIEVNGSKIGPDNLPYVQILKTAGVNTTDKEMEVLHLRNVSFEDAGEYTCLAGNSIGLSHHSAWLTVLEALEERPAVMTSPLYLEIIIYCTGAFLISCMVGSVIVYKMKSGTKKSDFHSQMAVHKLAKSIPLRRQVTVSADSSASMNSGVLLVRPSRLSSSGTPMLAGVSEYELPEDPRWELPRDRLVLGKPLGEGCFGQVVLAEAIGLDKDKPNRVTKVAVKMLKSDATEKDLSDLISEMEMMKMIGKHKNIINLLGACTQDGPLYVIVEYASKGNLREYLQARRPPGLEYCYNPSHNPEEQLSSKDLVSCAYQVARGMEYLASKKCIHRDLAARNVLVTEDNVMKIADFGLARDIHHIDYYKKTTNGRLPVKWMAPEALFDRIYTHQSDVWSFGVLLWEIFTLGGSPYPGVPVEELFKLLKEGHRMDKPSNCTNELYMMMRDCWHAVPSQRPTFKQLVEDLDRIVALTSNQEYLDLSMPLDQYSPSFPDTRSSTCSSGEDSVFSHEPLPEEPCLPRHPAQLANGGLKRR
Method: as §1
as §2, with “EZReader 2” for “LabChip® EZ Reader II”

T1 sequence (P22455 22-802): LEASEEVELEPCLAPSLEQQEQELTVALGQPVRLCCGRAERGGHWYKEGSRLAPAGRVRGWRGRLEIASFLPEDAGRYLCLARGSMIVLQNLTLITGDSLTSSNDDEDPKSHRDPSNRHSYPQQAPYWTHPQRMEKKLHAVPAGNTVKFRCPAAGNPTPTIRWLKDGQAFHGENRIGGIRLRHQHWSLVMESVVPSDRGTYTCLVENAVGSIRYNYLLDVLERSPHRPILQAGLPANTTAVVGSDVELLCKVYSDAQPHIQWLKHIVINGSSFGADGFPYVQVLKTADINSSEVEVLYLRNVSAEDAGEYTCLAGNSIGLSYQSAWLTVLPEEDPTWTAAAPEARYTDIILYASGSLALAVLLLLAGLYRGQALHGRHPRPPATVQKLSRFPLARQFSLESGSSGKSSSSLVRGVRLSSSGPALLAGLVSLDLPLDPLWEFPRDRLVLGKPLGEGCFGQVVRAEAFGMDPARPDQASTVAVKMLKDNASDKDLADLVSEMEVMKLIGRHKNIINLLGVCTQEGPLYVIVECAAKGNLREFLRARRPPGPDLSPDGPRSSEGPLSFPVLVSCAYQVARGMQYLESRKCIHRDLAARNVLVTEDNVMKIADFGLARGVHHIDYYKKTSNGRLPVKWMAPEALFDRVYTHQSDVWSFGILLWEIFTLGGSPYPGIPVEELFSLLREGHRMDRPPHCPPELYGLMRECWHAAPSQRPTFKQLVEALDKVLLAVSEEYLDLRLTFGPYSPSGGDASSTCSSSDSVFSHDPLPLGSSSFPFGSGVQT

Row | SMILES | Ratio FGFR1/FGFR4 [1] | IC50 [1] [nM] | IC50 [2] [nM]
1 | C=CC(=O)N(C)c1ncc2cc(-c3cc(OC)cc(OC)c3)ccc2n1 [COMPOUND 1] | C (the ratio is ≧100 and <200) |  | 
2 | C=CC(=O)N(C)c1ncc2cc(-c3cc(OC)cc(OC)c3)c(=O)n(C)c2n1 [COMPOUND 3] | A (the ratio is >500) | 10 to 100 | > 1000
3 | C=CC(=O)Nc1cccc(C)c1Nc1ncc(C#Cc2cc(OC)cc(OC)c2)cn1 [COMPOUND 6, N-(2-((5-((3,5-dimethoxyphenyl)ethynyl)pyrimidin-2-yl)amino)-3-methylphenyl)acrylamide] |  | 100 to 1000 | 
4 | C=CC(=O)N(C)c1ncc2cc(-c3c(Cl)c(OC)cc(OC)c3Cl)cnc2n1 [COMPOUND 8] | E (the ratio is ≧10 and <50) |  | 100 to 1000
5 | C=CC(=O)Nc1ccccc1Nc1nccc(N2CCCC(NS(=O)(=O)CCC)C2)n1 (stereo not drawn) [COMPOUND 11, N-(2-((4-(3-(propylsulfonamido)piperidin-1-yl)pyrimidin-2-yl)amino)phenyl)acrylamide] |  | 100 to 1000 | 
6 | C=CC(=O)N(C)c1ncc2cc(-c3c(Cl)c(OC)cc(OC)c3Cl)c(=O)n(C)c2n1 [COMPOUND 12] | D (the ratio is ≧50 and <100) |  | 10 to 100
7 | C#CC(=O)NCc1cccn2c(-c3cc(NC(=O)NCC(F)(F)F)cc(OC(C)C)c3)cnc12 [COMPOUND 20, N-((3-(3-isopropoxy-5-(3-(2,2,2-trifluoroethyl)ureido)phenyl)imidazo[1,2-a]pyridin-8-yl)methyl)propiolamide] |  | 10 to 100 | 
8 | C=CC(=O)Nc1ccccc1-c1ccn2c(-c3cccc(NC(=O)NCC(F)(F)F)c3)cnc2c1 [COMPOUND 21, N-(2-(3-(3-(3-(2,2,2-trifluoroethyl)ureido)phenyl)imidazo[1,2-a]pyridin-7-yl)phenyl)acrylamide] | B (the ratio is ≧200 and <500) | 100 to 1000 | 
9 | C=CC(=O)Nc1cccc(C)c1Nc1ncc(C#Cc2c(Cl)c(OC)cc(OC)c2Cl)cn1 [COMPOUND 24, N-(2-((5-((2,6-dichloro-3,5-dimethoxyphenyl)ethynyl)pyrimidin-2-yl)amino)-3-methylphenyl)acrylamide] |  | 10 to 100 | 
10 | C=CC(=O)Nc1cccc(C)c1Oc1ncc2cc(-c3c(Cl)c(OC)cc(OC)c3Cl)ccc2n1 [COMPOUND 25A] | D (the ratio is ≧50 and <100) | 100 to 1000 | 
11 | C=CC(=O)Nc1cccc(OC)c1Nc1ncc2cc(-c3c(Cl)c(OC)cc(OC)c3Cl)ccc2n1 [COMPOUND 30, N-(2-((6-(2,6-dichloro-3,5-dimethoxyphenyl)quinazolin-2-yl)amino)-3-methoxyphenyl)acrylamide] |  |  | 100 to 1000
12 | C=CC(=O)Nc1ccc(F)c(C)c1Nc1ncc2cc(-c3c(Cl)c(OC)cc(OC)c3Cl)ccc2n1 [COMPOUND 33] |  | 10 to 100 | 
13 | C=CC(=O)Nc1ccccc1Nc1ncc2cc(-c3c(Cl)c(OC)cc(OC)c3Cl)c(=O)n(C)c2c1C [COMPOUND 40, N-(2-((3-(2,6-dichloro-3,5-dimethoxyphenyl)-1,8-dimethyl-2-oxo-1,2-dihydro-1,6-naphthyridin-7-yl)amino)phenyl)acrylamide] |  | 100 to 1000 | 
14 | C=CC(=O)Nc1cccc(C)c1Nc1ncc2cc(-c3c(Cl)c(OC)cc(OC)c3Cl)cc(OC)c2n1 [COMPOUND 41] |  |  | 100 to 1000
15 | C=CC(=O)Nc1cccc(C)c1Nc1ncc2cc(-c3c(Cl)c(OC)cc(OC)c3Cl)c(=O)n(C)c2n1 [COMPOUND 43, N-(2-((6-(2,6-dichloro-3,5-dimethoxyphenyl)-8-methyl-7-oxo-7,8-dihydropyrido[2,3-d]pyrimidin-2-yl)amino)-3-methylphenyl)acrylamide] |  |  | 100 to 1000
16 | C=CC(=O)Nc1ccccc1Nc1cc2nc(NC(=O)NC(C)(C)C)c(-c3cc(OC)cc(OC)c3)cc2cn1 [COMPOUND 44] | E (the ratio is ≧10 and <50) | 100 to 1000 | 
17 | C=CC(=O)Nc1ccccc1Nc1ncc(Cl)c(N2CCN(C(=O)Nc3cccc(C(F)(F)F)c3)CC2)n1 [COMPOUND 50, 4-(2-((2-acrylamidophenyl)amino)-5-chloropyrimidin-4-yl)-N-(3-(trifluoromethyl)phenyl)piperazine-1-carboxamide] |  | 100 to 1000 | 
18 | C=CC(=O)Nc1cc(C(=O)NC2CCN(C)CC2)ccc1Nc1ncc(C)c(N2CCN(C(=O)Nc3ccc(C#N)cc3)CC2)n1 [COMPOUND 54, 4-(2-((2-acrylamido-4-((1-methylpiperidin-4-yl)carbamoyl)phenyl)amino)-5-methylpyrimidin-4-yl)-N-(4-cyanophenyl)piperazine-1-carboxamide] |  | 10 to 100 | 

More lines, now with the values ahead:

Row | Ratio FGFR1/FGFR4 [1] | IC50 [1] [nM] | IC50 [2] [nM] | SMILES
19 | D (the ratio is ≧50 and <100) | 100 to 1000 |  | C=CC(=O)N(C)c1ncc2cc(-c3c(Cl)cccc3Cl)ccc2n1 [COMPOUND 2]
20 | B (the ratio is ≧200 and <500) | 100 to 1000 | > 1000 | C=CC(=O)N(C)c1ncc2nc(-c3cc(OC)cc(OC)c3)c(=O)n(C)c2n1 [COMPOUND 4]
21 |  | 10 to 100 |  | C=CC(=O)N(C)c1ncc2c(n1)N(C)C(=O)N(c1cc(OC)cc(OC)c1)C2 [COMPOUND 5]
22 | D (the ratio is ≧50 and <100) | 100 to 1000 |  | C=CC(=O)Nc1cccc(C)c1Nc1ncc2cc(-c3cc(C(N)=O)ccc3F)ccc2n1 [COMPOUND 9]
23 | E (the ratio is ≧10 and <50) |  |  | C=CC(=O)Nc1cccc(C)c1Nc1ncc2cc(-c3cc(OC)cc(OC)c3)cnc2n1 [COMPOUND 10, N-(2-((6-(3,5-dimethoxyphenyl)pyrido[2,3-d]pyrimidin-2-yl)amino)-3-methylphenyl)acrylamide]
24 | D (the ratio is ≧50 and <100) | 10 to 100 |  | C=CC(=O)Nc1cccc(C)c1Nc1ncc2cc(-c3c(Cl)cccc3Cl)ccc2n1 [COMPOUND 13]
25 |  | 10 to 100 | 100 to 1000 | C=CC(=O)N(C)c1ncc2c(n1)N(C)C(=O)N(c1c(Cl)c(OC)cc(OC)c1Cl)C2 [COMPOUND 14]
26 | B (the ratio is ≧200 and <500) | 10 to 100 |  | C=CC(=O)Nc1ccccc1Nc1cc2c(cn1)cc(-c1cc(OC)cc(OC)c1)c(=O)n2C [COMPOUND 15]
27 | E (the ratio is ≧10 and <50) | 10 to 100 |  | C=CC(=O)Nc1cccc(C)c1Nc1ncc2cc(-c3c(Cl)ccc(OC)c3F)ccc2n1 [COMPOUND 17A]
28 | B (the ratio is ≧200 and <500) | 10 to 100 |  | C=CC(=O)Nc1cccc(Cl)c1Nc1ncc2cc(-c3cc(C(N)=O)ccc3C)ccc2n1 [COMPOUND 17]
29 | B (the ratio is ≧200 and <500) | 10 to 100 |  | C=CC(=O)Nc1cccc(C)c1Nc1ncc2cc(-c3c(Cl)cccc3Cl)c(=O)n(C)c2n1 [COMPOUND 22]
30 |  |  | 100 to 1000 | C=CC(=O)Nc1cccc(C)c1Nc1ncc2cc(-c3c(Cl)c(OC)cc(OC)c3Cl)cnc2n1 [COMPOUND 26, N-(2-((6-(2,6-dichloro-3,5-dimethoxyphenyl)pyrido[2,3-d]pyrimidin-2-yl)amino)-3-methylphenyl)acrylamide]
31 |  |  | 100 to 1000 | C=C(C)C(=O)Nc1cccc(C)c1Nc1ncc2cc(-c3c(Cl)c(OC)cc(OC)c3Cl)ccc2n1 [COMPOUND 29]
32 | C (the ratio is ≧100 and <200) |  |  | C=CC(=O)Nc1cc(F)cc(C)c1Nc1ncc2cc(-c3c(Cl)c(OC)cc(OC)c3Cl)ccc2n1 [COMPOUND 32]
33 |  |  | 100 to 1000 | C=CC(=O)Nc1cccc(C)c1Nc1ncc2cc(-c3c(Cl)c(OC)cc(OC)c3Cl)cc(F)c2n1 [COMPOUND 34, N-(2-((6-(2,6-dichloro-3,5-dimethoxyphenyl)-8-fluoroquinazolin-2-yl)amino)-3-methylphenyl)acrylamide]
34 | B (the ratio is ≧200 and <500) | 100 to 1000 |  | C=CC(=O)Nc1cc(F)cc(F)c1Nc1ncc2cc(-c3c(Cl)c(OC)cc(OC)c3Cl)ccc2n1 [COMPOUND 36]
35 | E (the ratio is ≧10 and <50) |  |  | C=CC(=O)Nc1cccc(C)c1Nc1cc2c(cn1)cc(-c1c(Cl)c(OC)cc(OC)c1Cl)c(=O)n2C [COMPOUND 39]
36 |  |  | 10 to 100 | C=CC(=O)Nc1cccc(C)c1Nc1ncc2cc(-c3c(Cl)c(OC)cc(OC)c3Cl)c(OC)cc2n1 [COMPOUND 42, N-(2-((6-(2,6-dichloro-3,5-dimethoxyphenyl)-7-methoxyquinazolin-2-yl)amino)-3-methylphenyl)acrylamide]
37 | E (the ratio is ≧10 and <50) |  |  | C=CC(=O)Nc1cccc(C)c1Nc1ncc2nc(-c3c(Cl)c(OC)cc(OC)c3Cl)c(=O)n(C)c2n1 [COMPOUND 45, N-(2-((6-(2,6-dichloro-3,5-dimethoxyphenyl)-8-methyl-7-oxo-7,8-dihydropteridin-2-yl)amino)-3-methylphenyl)acrylamide]
38 |  | 10 to 100 |  | C=CC(=O)Nc1cc(Cl)cc(C)c1Nc1ncc2cc(-c3c(Cl)c(OC)cc(OC)c3Cl)ccc2n1 [COMPOUND 49]
39 |  |  | 10 to 100 | C=CC(=O)N(CCCCN(CC)CC)c1ncc2cc(-c3c(Cl)c(OC)cc(OC)c3Cl)c(NC(=O)NC(C)(C)C)nc2n1 [COMPOUND 55, N-(7-(3-(tert-butyl)ureido)-6-(2,6-dichloro-3,5-dimethoxyphenyl)pyrido[2,3-d]pyrimidin-2-yl)-N-(4-(diethylamino)butyl)acrylamide]
